Assay [1] has as its system differentiating iTreg cells. Description: 15N-α-glutamine flux analysis (transamination) in differentiating iTreg cells. The assay is classed as cell-based, mouse. How it is done: CD4 naïve T cells, differentiating TH17 or iTreg cells (68 hours) were incubated with fresh media prior to labeling. The cells were then cultured for 4 hours at 37° C. with medium where the glutamine was replaced with the corresponding stable isotope label: 2 mM U-^13C glutamine or 2 mM ^15N-α-glutamine for 4 hours at 37° C. The cells were quickly collected and quickly washed with phosphate buffer saline (PBS), pelleted, and snap frozen in liquid nitrogen. The frozen samples were kept in −80° C. until extraction. Cell extracts were prepared by first adding 80/20 MeOH/H2O at −60° C. to the frozen pellets and collecting the supernatant after centrifugation at 4° C. The extracted samples were analyzed by high-resolution liquid-chromatography-mass spectrometry. Unlabeled glutamine-fed cells were used as background.
For amino acid profiling: The ultra-high pressure liquid chromatography (U-HPLC) system consisted of a Thermo Fisher Scientific (San Jose, USA) U-HPLC pumping system, coupled to an autosampler and degasser. Chromatographic separation of the intracellular metabolites was achieved by usage of a reversed phase Atlantis® T3 (3 μm, 2.1 mm ID×150 mm) column (Waters, Eschborn, Germany) and by implementation of a gradient elution program. […]

For assay [2], the system named is EAE induced in C57BL/6 mice. Description: Mouse experimental autoimmune encephalitis (EAE) model. The class given is in vivo. How it is done:
EAE was induced by immunizing mice (12 weeks old, 11-12 mice/group) twice with 300 μg of MOG35-55 peptide (amino acids 35-55; MEVGWYRSPFSROVHLYRNGK (SEQ ID NO: 2)) emulsified in complete Freund's adjuvant, followed by pertussis toxin injection and analyzed. The disease scores were assigned on a scale of 0-5 as follows: 0, none; 1, limp tail or waddling gait with tail tonicity; 2, wobbly gait; 3, hind limb paralysis; 4, hind limb and forelimb paralysis; 5, death. When the disease phenotype was very obvious (average score>1), PBS or (aminooxy)-acetic acid (AOA) (750 μg/mice) was intraperitoneal (i.p.) injected every day. After 8 days of administration of AOA or PBS, the mice were anesthetized, and cells infiltrated into brain and spinal cord were collected for analysis. When indicated, the statistical significance was determined by Student's t test (*, p<0.05; **, p<0.01; ***, p<0.001). All animal work was approved by the Institutional Animal Care and Use Committee (IACUC).
The in vitro findings that AOA regulates the TH17/iTreg balance prompted an investigation into the effects of AOA in vivo in the context of a pathologic TH17-dependent disease state. TH17 cells are the major pathogenic cell population in experimental autoimmune encephalomyelitis (EAE), a mouse model of multiple sclerosis, but FOXP3+regulatory T cells suppress TH17 cell-mediated inflammatory diseases, such as EAE. In the in vitro studies, AOA skewed TH17 differentiation towards FOXP3+ iTreg cells and, therefore, offers a potential to treat TH17-mediated autoimmune diseases. To test this possibility, EAE was induced in C57BL/6 mice by immunizing with myelin oligodendrocyte glycoprotein peptide (MOG35-55) in complete Freund's adjuvant (CFA) as described. AOA or control vehicle was injected daily intraperitoneally after a majority of the mice began to show obvious neurological signs, including tail paralysis that progressed to hind and front limb paralysis (disease score>1). […] The ratio of FOXP3+ cells to IL17+ cells is much higher in AOA-treated mice than in control mice (FIG. 4c).

Where [3] appears, read: brain and spinal cord infiltrated T cells after 8 days of AOA 750 μg/mice i.p. daily, p<0.01.

Experimental findings from US11241455B2, “Methods of treating disease by metabolic control of T-cell differentiation” (The J. David Gladstone Institutes, a testamentary trust …, priority 2016, dated 2022) are described below.

For the compound `NOCC(=O)O` [AOA, (aminooxy)-acetic acid], in assay [1] (differentiating iTreg cells fed 2 mM 15N-α-glutamine for 4 hours), the “reduction of total intracellular 15N-α-aspartate” value was 75%. In addition, in assay [1] (differentiating iTreg cells, 2 mM 15N-α-glutamine for 4 hours), the “de novo synthesis for several amino acids (15N label incorporation)” value is listed as “significant decreases”. Besides, in assay [2] (750 μg/mice i.p. every day, started when average score>1, versus PBS), the “recovery from EAE diseases (disease scores, scale of 0-5)” value is “significant recovery from EAE diseases”. In addition, the “ratio of FOXP3+ cells to IL17+ cells” value in assay [2] (AOA-treated mice versus control mice, CNS infiltrated T cells) was “much higher”. Moreover, in assay [2] (setting [3]), the “percentage of FOXP3+ T cells in the central nervous system” value is recorded as “increased” and the “percentage of TH17 cells in the central nervous system” value is listed as “significantly reduced”.
